Source: patent US12110313B2, “Engineered bacterial ribosome compositions and methods” (ARIZONA BOARD OF REGENTS ON BEHALF OF ARIZONA STATE …, priority 2019, dated 2024)

Legend:
wild-type ribosomes = assay: Incorporation of glycosylated amino acids into proteins from activated suppressor tRNAs by wild-type ribosomes; assay type: biochemical, E. coli; conditions: nonsense codon suppression with activated suppressor tRNA
From the text: FIG. 3 depicts glycosylated amino acids incorporated into proteins by wild-type E. coli ribosomes.
Many glycosylated amino acids can be incorporated into proteins in quite good yield from activated suppressor tRNAs by nonsense codon suppression employing wild-type ribosomes. However, in numerous experiments, when any of these was O- or N-acetylated at one or more positions, the result was virtually complete loss of the ability of the activated tRNAs to suppress nonsense codons. Accordingly, we have used O-GlcNAc-puromycin (FIG. 4) to select modified ribosomes capable of incorporating N-acetylglycosyl amino acids.
Post-translational protein glycosylation is both ubiquitous in nature and quite important. […] However, for whatever reason(s), neither O- nor N-acetylated glycosyl amino acids could be incorporated in good yield with wild-type ribosomes. We wish to select modified ribosomes capable of incorporating O- or N-acetylated glycosyl amino acids efficiently.

[1] = system: CD40 expression in RAW 264.7 mouse macrophage cells; assay: CD40 upregulation in RAW 264.7 cells by flow cytometry with PE-conjugated anti-mouse CD40 antibody; assay type: cell-based
Description: FIG. 6. Flow cytometry analysis of RAW 264.7 cells treated with murine IFNs and probed with PE-conjugated anti-mouse CD40 antibody. Upper left, 0.6 pg/mL glycosylated IFN; upper right, 6 pg/mL non-glycosylated IFN; lower left, 0.6 pg/mL non-glycosylated IFN; lower right, control lacking IFN.
These four modified INF-βs were tested in parallel with wild-type (fully glycosylated) mouse IFN-β for their activities. Our assay system uses RAW 264.7 mouse macrophage cells (ATCC TIB-71), which have been transformed using Abelson murine leukemia virus. […] CD40 upregulation was probed using a PE (phycoerythrin)-conjugated anti-mouse CD40 antibody. As shown (FIG. 6), this assay system has been used successfully to compare fully glycosylated and non-glycosylated murine INF-βs by flow cytometry.

antiviral activity = conditions: murine INF-β, modification at position 29; cited from earlier work

Row | Molecule | response in CD40 upregulation assay [1] | reduction of antiviral activity from wild-type (antiviral activity) | further results
1 | N[C@@H](Cc1ccc(OC2O[C@H](CO)[C@@H](O[C@@H]3O[C@H](CO)[C@H](O)[C@H](O)[C@H]3O)[C@H](O)[C@H]2O)cc1)C(=O)O (stereo partly drawn) [O-lactosyltyrosine] |  |  | incorporation into proteins by wild-type ribosomes (wild-type ribosomes): incorporated into proteins quite well
2 | glycosylated IFN-β: fully glycosylated murine interferon-β | dose-dependent responses |  | potency relative to non-glycosylated IFN-β ([1]; CD40 upregulation): about 10 fold
3 | Asp29: murine INF-β with replacement of Asn29 with Asp29 (protein, UniProt P01575 22-182, looked up, variant N29D) Interferon beta: INYKQLQLQERTNIRKCQELLEQLNGKIDLTYRADFKIPMEMTEKMQKSYTAFAIQEMLQNVFLVFRNNFSSTGWNETIVVRLLDELHQQTVFLKTVLEEKQEERLTWEMSSTALHLKSYYWRVQRYLKLMKYNSYAWMVVRAEIFRNFLIIRRLTRNFQN |  | two-fold | 
4 | non-glycosylated IFN-β: non-glycosylated murine interferon-β (protein, UniProt P01575 22-182, looked up, non-glycosylated) Interferon beta: INYKQLQLQERTNIRKCQELLEQLNGKINLTYRADFKIPMEMTEKMQKSYTAFAIQEMLQNVFLVFRNNFSSTGWNETIVVRLLDELHQQTVFLKTVLEEKQEERLTWEMSSTALHLKSYYWRVQRYLKLMKYNSYAWMVVRAEIFRNFLIIRRLTRNFQN | dose-dependent responses |  | 
5 | Ala29: murine INF-β with replacement of Asn29 with Ala29 (protein, UniProt P01575 22-182, looked up, variant N29A) Interferon beta: INYKQLQLQERTNIRKCQELLEQLNGKIALTYRADFKIPMEMTEKMQKSYTAFAIQEMLQNVFLVFRNNFSSTGWNETIVVRLLDELHQQTVFLKTVLEEKQEERLTWEMSSTALHLKSYYWRVQRYLKLMKYNSYAWMVVRAEIFRNFLIIRRLTRNFQN |  | 10 fold | 
